Here are results for 21 compounds from EP0029617A1, “Use of tertiary heterocyclic amines as synergists in pesticides; derivatives of cycloamines” (priority 1979, dated 1981).

The data set deals with Kornkäfer (sitophilus granarius L). Put plainly: whole plant or invertebrate. The format is in vivo. The note with it: for Wirksamkeit in % Substanz allein: amine 1 mg/ml in Aceton mixed 1 : 1 with Aceton, 2 ml per dish, 25 weevils, dead counted after 3 h; for Wirksamkeit in % Substanz +Ripcord: amine 1 mg/ml mixed 1 : 1 with Ripcord 0,01 mg/ml; for Wirksamkeit in % Substanz +Ripcord / Wirksamkeit in % Substanz +Talcord: 3 h; for Wirksamkeit in % Substanz +Talcord: amine 1 mg/ml mixed 1 : 1 with Talcord 0,01 mg/ml. On the procedure: Test von tertiären, heterocyclischen Aminen allein und im Gemisch mit Pyrethroiden an Kornkäfern (sitophilus granarius L)
In Petrischalen mit 15 cm Durchmesser mit talcumbepuderten Seitenwänden, um das Entfliehen der Kornkäfer zu verhindern, wurden jeweils 2 ml der Acetonlösungen einpipettiert und durch vorsichtiges Schwenken der Schalen gleichmäßig auf dem Boden verteilt. Nach dem Abdampfen des Acetons und dem Antrocknen der Beläge wurden in jede Schale 25 Kornkäfer eingezählt. Nach einer Stunde wurde jeweils ein 12,5 cm Rundfilter in die Schalen eingelegt, um den Käfern das Befreien aus der Rückenlage zu ermöglichen, was auf der glatten Glasplatte nicht möglich ist. Die lichtscheuen Käfer verkrochen sich mit Vorliebe unter die Filter und blieben so ständig mit den Wirkstoffbelägen in Kontakt. Alle Versuche liefen mit 3 Wiederholungen. Nach 3 h wurden die toten Käfer ausgezählt.
In der Tabelle 3 ist jeweils der Durchschnitt der Summe der 4 Einzelwerte angegeben. 25 tote Kornkäfer entsprechen dabei einer Wirkung von 100 %. Die Temperaturen betrugen während der Tests im Durchschnitt 19 - 21°C. Der synergistische Faktor berechnet sich analog wie in Beispiel 1 angegeben.
Die zu prüfenden tertiären, heterocyclischen Amine wurden - mit 1 mg Wirkstoff pro ml als Acetonlösungen angesetzt. Sie wurden im Verhältnis 1 : 1 mit Ripcord bzw. Talcord, die mit 0,01 mg Wirkstoff pro ml als Acetonlösung vorlagen, gemischt. Die Einzelkomponenten wurden im Verhältnis 1 : 1 mit Aceton gemischt.
Auch bei diesen Versuchen zeigten die Kontrollversuche stets bei Versuchsende eine Mortalität der Kornkäfer von 0 %.
Die synergistische Wirkung der tertiären, heterocyclischen Amine auf die Pyrethroide ist auch dann noch deutlich, wenn das Amin in wesentlich niederen Aufwandmengen eingesetzt wird, als dies in Beispiel 3 beschrieben wurde. Die Ergebnisse sind in der Tabelle 4 zusammengestellt. Dieser Versuch zeigt auch, daß Amine mit insektiziden Eigenschaften, wenn sie in Konzentrationen unterhalb ihres insektiziden Wirkungsbereiches eingesetzt werden, immer noch gute synergistische Wirkungen im Gemisch mit Pyrethroiden zeigen. Die Versuche wurden wie im Beispiel 3 beschrieben mit Kornkäfern durchgeführt. Es wurden lediglich die Konzentrationen der eingesetzten tertiären, heterocyclischen Amine geändert. Für die Verdünnung Pyrethroid : Amin = 1 : 10 wurde das Amin mit 0,1 mg Wirkstoff/ml Acetonlösung eingesetzt. Für die Verdünnung 1 : 5 mit 0,05 mg Wirkstoff/ml.

The mark [1] stands for this setting: amine 1 mg/ml + Ripcord 0,01 mg/ml.
The mark [2] stands for this setting: amine 1 mg/ml + Talcord 0,01 mg/ml.

For 1-N-p-Menthen-piperidin, the “Wirksamkeit in % Substanz allein” value is on record as 0%, the “Wirksamkeit in % Substanz +Ripcord” value is recorded as 60,0% and the “Wirksamkeit in % Substanz +Talcord” value was 72,0%. For the same compound, the “Synergistischer Faktor bei Ripcord” value under setting [1] is 1,90. Moreover, under setting [2], the “Synergistischer Faktor bei Talcord” value was 7,42.
For `C1CCN(CCOCCOCCN2CCCC2)C1` [1,2-Bis-(2-N-pyrrolidino-ethoxi)-ethan] the same measures were 0%, 100,0%, 69,2%, 3,17 and 7,13.
For the compound `C(CCCN1CCCCC1)CCN1CCCCC1` [1,6-N,N-Di-piperidino-hexan], the “Wirksamkeit in % Substanz allein” value amounted to 0%, the “Wirksamkeit in % Substanz +Ripcord” value is given as 57,2% and the “Wirksamkeit in % Substanz +Talcord” value is on record as 2,8%. The “Synergistischer Faktor bei Ripcord” value under setting [1] is recorded as 2,82.
For the compound `C(CCCN1CCCC1)CCN1CCCC1` [1,6-N,N-Di-pyrrolidino-hexan], the “Wirksamkeit in % Substanz allein” value came to 0%, the “Wirksamkeit in % Substanz +Ripcord” value is 77,2% and the “Wirksamkeit in % Substanz +Talcord” value is 41,2%. For the same compound, the “Synergistischer Faktor bei Ripcord” value under setting [1] is on record as 2,52. Besides, under setting [2], the “Synergistischer Faktor bei Talcord” value is reported as 4,24.
On to `C(CCCCN1CCCCC1)CCCN1CCCCC1` [1,8-N,N-Di-piperidino-octan], for which the “Wirksamkeit in % Substanz allein” value was 61,2%, the “Wirksamkeit in % Substanz +Ripcord” value is recorded as 90,8% and the “Wirksamkeit in % Substanz +Talcord” value is 65,2%.
For the compound `C(CCCCN1CCCC1)CCCN1CCCC1` [1,8-N,N-Di-pyrrolidino-octan], the “Wirksamkeit in % Substanz allein” value was 0%, the “Wirksamkeit in % Substanz +Ripcord” value is 88,0% and the “Wirksamkeit in % Substanz +Talcord” value is on record as 64,0%. Under setting [1], the “Synergistischer Faktor bei Ripcord” value is 2,79. Also, the “Synergistischer Faktor bei Talcord” value under setting [2] was 6,60.
With `C(CCCCCN1CCCCC1)CCCCN1CCCCC1` [1,10-N,N-Di-piperidino-decan], the “Wirksamkeit in % Substanz allein” value came out at 0%, the “Wirksamkeit in % Substanz +Ripcord” value is recorded as 76,0% and the “Wirksamkeit in % Substanz +Talcord” value is on record as 58,8%. The “Synergistischer Faktor bei Ripcord” value under setting [1] was 2,41. For the same compound, the “Synergistischer Faktor bei Talcord” value under setting [2] is 6,06.
In the case of `C(CCCCCN1CCCC1)CCCCN1CCCC1` [1,10-N,N-Di-pyrrolidino-decan], the “Wirksamkeit in % Substanz allein” value amounted to 0%, the “Wirksamkeit in % Substanz +Ripcord” value is recorded as 80,0% and the “Wirksamkeit in % Substanz +Talcord” value was 29,2%. Besides, the “Synergistischer Faktor bei Ripcord” value under setting [1] is 2,54. Moreover, the “Synergistischer Faktor bei Talcord” value under setting [2] is given as 3,00.
The like results for `OC(CCl)CN1CCCCC1` (stereo not drawn) [1-N-Piperidino-2-hydroxi-3-chlor-propan] were, in that order, 0%, 54,8%, 54,8%, 1,74 and 5,65.
For `OCCC(O)N1CCCC1` (stereo not drawn) [1-N-Pyrrolidino-propandiol-(1,3)] the same measures were 0%, 100,0%, 78,8%, 3,17 and 8,12.
Turning to `Oc1cc(CN2CCCCC2)c(O)cc1CN1CCCCC1` [2,5-Bis-(N-piperidino-methyl)-hydrochinon], the “Wirksamkeit in % Substanz allein” value was 0%, the “Wirksamkeit in % Substanz +Ripcord” value is reported as 56,0% and the “Wirksamkeit in % Substanz +Talcord” value was 24,0%. In addition, the “Synergistischer Faktor bei Ripcord” value under setting [1] is given as 1,78. Also, under setting [2], the “Synergistischer Faktor bei Talcord” value was 2,47.
The like results for `CCOC(=O)C(CC)N1CCOCC1` (stereo not drawn) [2-N-Morpholino-buttersäure-ethylester] were, in that order, 0%, 49,2%, 32,0%, 1,56 and 3,30.
For `CCOC(=O)C(CC)N1CCCCC1` (stereo not drawn) [2-N-Piperidino-buttersäure-ethylester] the same measures were 0%, 61,2%, 52,0%, 1,94 and 5,36.
As to `CCCCOC(CN1CCCCC1)OCCCC` [2-N-Piperidino-ethyl-dibutyl-acetal], the “Wirksamkeit in % Substanz allein” value was found to be 0%, the “Wirksamkeit in % Substanz +Ripcord” value was 86,8% and the “Wirksamkeit in % Substanz +Talcord” value is 36,0%. Further, where the note is “in vivo”, the “Synergistischer Faktor bei Ripcord” value is recorded as 2,76 and the “Synergistischer Faktor bei Talcord” value is 3,71.
In the case of `O=C1CCCCC1CN1CCCCC1` (stereo not drawn) [2-N-Piperidino-methyl-cyclo-hexanon], the “Wirksamkeit in % Substanz allein” value was 18,8%, the “Wirksamkeit in % Substanz +Ripcord” value is 70,8% and the “Wirksamkeit in % Substanz +Talcord” value is given as 34,8%. The “Synergistischer Faktor bei Ripcord” value under setting [1] was 1,65. Besides, under setting [2], the “Synergistischer Faktor bei Talcord” value is 1,65.
On to `c1ccc2cc(CN3CCCCC3)ccc2c1` [2-N-Piperidino-methyl-naphthalin], for which the “Wirksamkeit in % Substanz allein” value is given as 0%, the “Wirksamkeit in % Substanz +Ripcord” value is on record as 96,0% and the “Wirksamkeit in % Substanz +Talcord” value is on record as 88,0%. The “Synergistischer Faktor bei Ripcord” value under setting [1] is reported as 3,05. In addition, the “Synergistischer Faktor bei Talcord” value under setting [2] is recorded as 9,07.
Turning to `OCCN1CCCC1` [2-N-Pyrrolidino-ethanol], the “Wirksamkeit in % Substanz allein” value came to 0%, the “Wirksamkeit in % Substanz +Ripcord” value is listed as 81,2% and the “Wirksamkeit in % Substanz +Talcord” value is recorded as 53,2%. Besides, the “Synergistischer Faktor bei Ripcord” value under setting [1] was 2,58. The “Synergistischer Faktor bei Talcord” value under setting [2] is 5,48.
For `COc1cc(C=O)cc(CN2CCCCC2)c1O` [3-N-(Piperidino-methyl)-4-hydroxid-5-methoxi-benz-aldehyd] the same measures were 0%, 88,0%, 40,0%, 2,79 and 4,12.
The like results for `C=CC(C)(CCC=C(C)CCC=C(C)C)N1CCCC1` (stereo not drawn) [3-N-pyrrolidino-3,7,11-tri-methyl-1,6,10-dodecatrien] were, in that order, 0%, 94,8%, 34,8%, 3,00 and 3,59.
`C#CCN1CCCC1` [3-N-pyrrolidino-propin]: the “Wirksamkeit in % Substanz allein” value was found to be 0%, the “Wirksamkeit in % Substanz +Ripcord” value is on record as 50,8% and the “Wirksamkeit in % Substanz +Talcord” value is recorded as 14,8%. Further, the “Synergistischer Faktor bei Ripcord” value under setting [1] is 1,61. The “Synergistischer Faktor bei Talcord” value under setting [2] is 1,52.
The like results for `C=CC(C)(CCC=C(C)C)N1CCCCCC1` (stereo not drawn) [6-N-Hexamethylenimino-2,6-dimethyl-octadien-(2,7)] were, in that order, 0%, 76,0%, 70,8%, 2,41 and 7,30.
